Data: ChEMBL document CHEMBL3045426, “Synthesis, Antiviral and Antibacterial Activities of Isatin Mannich Bases” (Med Chem Res, 2005)
In brackets after ≈: the same amount, converted by molar mass.

Tested on: Vibrio cholerae
Assay: Antimicrobial activity against Vibrio cholerae 01 after 18 to 20 hr by agar dilution method
Type: functional
Settings: 1

SMILES	MIC [µg/mL]
COc1cc(Cc2cnc(/N=C3\C(=O)N(CN4CCN(Cc5ccccc5)CC4)c4ccc(Cl)cc43)nc2N)cc(OC)c1OC	4.88 (≈ 7.6 µM)

Tested on: Priestia megaterium
Assay: Antimicrobial activity against Bacillus megaterium after 18 to 20 hr by agar dilution method
Type: functional
Settings: not given

SMILES	MIC [µg/mL]
COc1cc(Cc2cnc(/N=C3\C(=O)N(CN4CCN(Cc5ccccc5)CC4)c4ccc(Cl)cc43)nc2N)cc(OC)c1OC	625 (≈ 973 µM)

Tested on: Enterobacter
Assay: Antimicrobial activity against Enterobacter after 18 to 20 hr by agar dilution method
Type: functional
Settings: not given

SMILES	MIC [µg/mL]
COc1cc(Cc2cnc(/N=C3\C(=O)N(CN4CCN(Cc5ccccc5)CC4)c4ccc(Cl)cc43)nc2N)cc(OC)c1OC	625 (≈ 973 µM)

Tested on: Citrobacter freundii
Assay: Antimicrobial activity against Citrobacter freundii after 18 to 20 hr by agar dilution method
Type: functional
Settings: not given

SMILES	MIC [µg/mL]
COc1cc(Cc2cnc(/N=C3\C(=O)N(CN4CCN(Cc5ccccc5)CC4)c4ccc(Cl)cc43)nc2N)cc(OC)c1OC	625 (≈ 973 µM)

Tested on: Salmonella enteritidis
Assay: Antimicrobial activity against Salmonella enterica subsp. enterica serovar Enteritidis after 18 to 20 hr by agar dilution method
Type: functional
Settings: not given

SMILES	MIC [µg/mL]
COc1cc(Cc2cnc(/N=C3\C(=O)N(CN4CCN(Cc5ccccc5)CC4)c4ccc(Cl)cc43)nc2N)cc(OC)c1OC	625 (≈ 973 µM)

Tested on: Salmonella typhimurium
Assay: Antimicrobial activity against Salmonella enterica subsp. enterica serovar Typhimurium after 18 to 20 hr by agar dilution method
Type: functional
Settings: not given

SMILES	MIC [µg/mL]
COc1cc(Cc2cnc(/N=C3\C(=O)N(CN4CCN(Cc5ccccc5)CC4)c4ccc(Cl)cc43)nc2N)cc(OC)c1OC	625 (≈ 973 µM)

Tested on: Proteus mirabilis
Assay: Antimicrobial activity against Proteus mirabilis after 18 to 20 hr by agar dilution method
Type: functional
Settings: not given

SMILES	MIC [µg/mL]
COc1cc(Cc2cnc(/N=C3\C(=O)N(CN4CCN(Cc5ccccc5)CC4)c4ccc(Cl)cc43)nc2N)cc(OC)c1OC	625 (≈ 973 µM)

Tested on: Proteus vulgaris
Assay: Antimicrobial activity against Proteus vulgaris after 18 to 20 hr by agar dilution method
Type: functional
Settings: not given

SMILES	MIC [µg/mL]
COc1cc(Cc2cnc(/N=C3\C(=O)N(CN4CCN(Cc5ccccc5)CC4)c4ccc(Cl)cc43)nc2N)cc(OC)c1OC	625 (≈ 973 µM)

Tested on: Edwardsiella tarda
Assay: Antimicrobial activity against Edwardsiella tarda after 18 to 20 hr by agar dilution method
Type: functional
Settings: not given

SMILES	MIC [µg/mL]
COc1cc(Cc2cnc(/N=C3\C(=O)N(CN4CCN(Cc5ccccc5)CC4)c4ccc(Cl)cc43)nc2N)cc(OC)c1OC	625 (≈ 973 µM)

Tested on: Escherichia coli
Assay: Antimicrobial activity against Escherichia coli NCTC 10418 after 18 to 20 hr by agar dilution method
Type: functional
Settings: not given

SMILES	MIC [µg/mL]
COc1cc(Cc2cnc(/N=C3\C(=O)N(CN4CCN(Cc5ccccc5)CC4)c4ccc(Cl)cc43)nc2N)cc(OC)c1OC	625 (≈ 973 µM)

Tested on: Salmonella typhi
Assay: Antimicrobial activity against Salmonella enterica subsp. enterica serovar Typhi after 18 to 20 hr by agar dilution method
Type: functional
Settings: not given

SMILES	MIC [µg/mL]
COc1cc(Cc2cnc(/N=C3\C(=O)N(CN4CCN(Cc5ccccc5)CC4)c4ccc(Cl)cc43)nc2N)cc(OC)c1OC	625 (≈ 973 µM)

Tested on: Salmonella paratyphi
Assay: Antimicrobial activity against Salmonella enterica subsp. enterica serovar Paratyphi A after 18 to 20 hr by agar dilution method
Type: functional
Settings: not given

SMILES	MIC [µg/mL]
COc1cc(Cc2cnc(/N=C3\C(=O)N(CN4CCN(Cc5ccccc5)CC4)c4ccc(Cl)cc43)nc2N)cc(OC)c1OC	625 (≈ 973 µM)

Tested on: Vibrio parahaemolyticus
Assay: Antimicrobial activity against Vibrio parahaemolyticus after 18 to 20 hr by agar dilution method
Type: functional
Settings: not given

SMILES	MIC [µg/mL]
COc1cc(Cc2cnc(/N=C3\C(=O)N(CN4CCN(Cc5ccccc5)CC4)c4ccc(Cl)cc43)nc2N)cc(OC)c1OC	9.76 (≈ 15.2 µM)

Tested on: Vibrio cholerae
Assay: Antimicrobial activity against Vibrio cholerae 0139 after 18 to 20 hr by agar dilution method
Type: functional
Settings: 139

SMILES	MIC [µg/mL]
COc1cc(Cc2cnc(/N=C3\C(=O)N(CN4CCN(Cc5ccccc5)CC4)c4ccc(Cl)cc43)nc2N)cc(OC)c1OC	625 (≈ 973 µM)

Tested on: Vibrio fluvialis
Assay: Antimicrobial activity against Vibrio fluvialis after 18 to 20 hr by agar dilution method
Type: functional
Settings: not given

SMILES	MIC [µg/mL]
COc1cc(Cc2cnc(/N=C3\C(=O)N(CN4CCN(Cc5ccccc5)CC4)c4ccc(Cl)cc43)nc2N)cc(OC)c1OC	625 (≈ 973 µM)

Tested on: Vibrio mimicus
Assay: Antimicrobial activity against Vibrio mimicus after 18 to 20 hr by agar dilution method
Type: functional
Settings: not given

SMILES	MIC [µg/mL]
COc1cc(Cc2cnc(/N=C3\C(=O)N(CN4CCN(Cc5ccccc5)CC4)c4ccc(Cl)cc43)nc2N)cc(OC)c1OC	2.44 (≈ 3.8 µM)

Tested on: Pseudomonas aeruginosa
Assay: Antimicrobial activity against Pseudomonas aeruginosa after 18 to 20 hr by agar dilution method
Type: functional
Settings: not given

SMILES	MIC [µg/mL]
COc1cc(Cc2cnc(/N=C3\C(=O)N(CN4CCN(Cc5ccccc5)CC4)c4ccc(Cl)cc43)nc2N)cc(OC)c1OC	1250 (≈ 1950 µM)

Tested on: Staphylococcus aureus
Assay: Antimicrobial activity against Staphylococcus aureus after 18 to 20 hr by agar dilution method
Type: functional
Settings: not given

SMILES	MIC [µg/mL]
COc1cc(Cc2cnc(/N=C3\C(=O)N(CN4CCN(Cc5ccccc5)CC4)c4ccc(Cl)cc43)nc2N)cc(OC)c1OC	625 (≈ 973 µM)

Tested on: Morganella morganii
Assay: Antimicrobial activity against Morganella morganii after 18 to 20 hr by agar dilution method
Type: functional
Settings: not given

SMILES	MIC [µg/mL]
COc1cc(Cc2cnc(/N=C3\C(=O)N(CN4CCN(Cc5ccccc5)CC4)c4ccc(Cl)cc43)nc2N)cc(OC)c1OC	625 (≈ 973 µM)

Tested on: Shigella boydii
Assay: Antimicrobial activity against Shigella boydii after 18 to 20 hr by agar dilution method
Type: functional
Settings: not given

SMILES	MIC [µg/mL]
COc1cc(Cc2cnc(/N=C3\C(=O)N(CN4CCN(Cc5ccccc5)CC4)c4ccc(Cl)cc43)nc2N)cc(OC)c1OC	39.1 (≈ 60.8 µM)

Tested on: Plesiomonas
Assay: Antimicrobial activity against Plesiomonas after 18 to 20 hr by agar dilution method
Type: functional
Settings: not given

SMILES	MIC [µg/mL]
COc1cc(Cc2cnc(/N=C3\C(=O)N(CN4CCN(Cc5ccccc5)CC4)c4ccc(Cl)cc43)nc2N)cc(OC)c1OC	39.1 (≈ 60.8 µM)

Tested on: Shigella sonnei
Assay: Antimicrobial activity against Shigella sonnei after 18 to 20 hr by agar dilution method
Type: functional
Settings: not given

SMILES	MIC [µg/mL]
COc1cc(Cc2cnc(/N=C3\C(=O)N(CN4CCN(Cc5ccccc5)CC4)c4ccc(Cl)cc43)nc2N)cc(OC)c1OC	1250 (≈ 1950 µM)

Tested on: Klebsiella pneumoniae
Assay: Antimicrobial activity against Klebsiella pneumoniae after 18 to 20 hr by agar dilution method
Type: functional
Settings: not given

SMILES	MIC [µg/mL]
COc1cc(Cc2cnc(/N=C3\C(=O)N(CN4CCN(Cc5ccccc5)CC4)c4ccc(Cl)cc43)nc2N)cc(OC)c1OC	625 (≈ 973 µM)

Tested on: Klebsiella pneumoniae
Assay: Antimicrobial activity against Klebsiella pneumoniae subsp. ozaenae after 18 to 20 hr by agar dilution method
Type: functional
Settings: not given

SMILES	MIC [µg/mL]
COc1cc(Cc2cnc(/N=C3\C(=O)N(CN4CCN(Cc5ccccc5)CC4)c4ccc(Cl)cc43)nc2N)cc(OC)c1OC	1250 (≈ 1950 µM)

Tested on: Mycobacterium tuberculosis
Assay: Antimycobacterial activity against Mycobacterium tuberculosis H37Rv ATCC 27294 at 6.25 ug/ml by MABA
Type: functional
Settings: not given

SMILES	inhibition at 6.25 µg/mL [%]
COc1cc(Cc2cnc(/N=C3\C(=O)N(CN4CCN(Cc5ccccc5)CC4)c4ccc(Cl)cc43)nc2N)cc(OC)c1OC	50

Tested on: not listed separately
Assay: Cytotoxicity against Homo sapiens (human) HuH7 cells assessed as cell growth at 50 ug/ml after 3 days by Neutral red assay
Type: cell-based, Huh-7
Settings: read-out: Activity

SMILES	viability at 72 h, 50 ug/ml [%]
COc1cc(Cc2cnc(/N=C3\C(=O)N(CN4CCN(Cc5ccccc5)CC4)c4ccc(Cl)cc43)nc2N)cc(OC)c1OC	79

Tested on: not listed separately
Assay: Cytotoxicity against Homo sapiens (human) CEM cells after 5 days by MTT assay
Type: cell-based
Settings: CEM cells (CCRF-CEM)

SMILES	CC50 at 120 h [µg/mL]
COc1cc(Cc2cnc(/N=C3\C(=O)N(CN4CCN(Cc5ccccc5)CC4)c4ccc(Cl)cc43)nc2N)cc(OC)c1OC	94.7 (≈ 147 µM)

Tested on: Human immunodeficiency virus 1
Assay: Antiviral activity against Human immunodeficiency virus 1 IIIB infected CEM cells assessed as protection against viral infection after 6 days by XTT assay
Type: functional, CCRF-CEM
Parameters: concentration or dose not given beside the values
Settings: not given

SMILES	Activity [%]
COc1cc(Cc2cnc(/N=C3\C(=O)N(CN4CCN(Cc5ccccc5)CC4)c4ccc(Cl)cc43)nc2N)cc(OC)c1OC	22.33

Tested on: Human immunodeficiency virus 1
Assay: Antiviral activity against Human immunodeficiency virus 1 IIIB infected CEM cells assessed as inhibition of virus-induced cytopathicity after 6 days by XTT assay
Type: functional, organism-based
Settings: CCRF-CEM, 144 h

SMILES	EC50 [µg/mL]
COc1cc(Cc2cnc(/N=C3\C(=O)N(CN4CCN(Cc5ccccc5)CC4)c4ccc(Cl)cc43)nc2N)cc(OC)c1OC	> 94.7

Tested on: not listed separately
Assay: Cytotoxicity against Homo sapiens (human) MT4 cells after 5 days by MTT assay
Type: cell-based
Settings: not given

SMILES	CC50 at 120 h [µg/mL]
COc1cc(Cc2cnc(/N=C3\C(=O)N(CN4CCN(Cc5ccccc5)CC4)c4ccc(Cl)cc43)nc2N)cc(OC)c1OC	36.1 (≈ 56.2 µM)

Tested on: Human immunodeficiency virus 1
Assay: Antiviral activity against Human immunodeficiency virus 1 IIIB infected MT4 cells assessed as inhibition of virus-induced cytopathicity after 5 days by MTT assay
Type: functional, organism-based
Settings: MT4, 120 h

SMILES	EC50 [µg/mL]
COc1cc(Cc2cnc(/N=C3\C(=O)N(CN4CCN(Cc5ccccc5)CC4)c4ccc(Cl)cc43)nc2N)cc(OC)c1OC	> 36.1

Tested on: Hepatitis C virus
Assay: Antiviral activity against Hepatitis C virus BM4-5 infected in Huh7 cells assessed as inhibition of viral RNA replication by phosphor screening method
Type: functional, Hepacivirus hominis, Huh-7
Settings: not given

SMILES	inhibition (INH) [%]
COc1cc(Cc2cnc(/N=C3\C(=O)N(CN4CCN(Cc5ccccc5)CC4)c4ccc(Cl)cc43)nc2N)cc(OC)c1OC	66

Tested on: Human immunodeficiency virus 1
Assay: Antiviral activity against Human immunodeficiency virus 1 IIIB infected MT4 cells assessed as protection against viral infection after 5 days by MTT assay
Type: functional
Parameters: concentration or dose not given beside the values
Settings: not given

SMILES	Activity [%]
COc1cc(Cc2cnc(/N=C3\C(=O)N(CN4CCN(Cc5ccccc5)CC4)c4ccc(Cl)cc43)nc2N)cc(OC)c1OC	41.8
